# Assay results: ChEMBL document CHEMBL1157539, “Thousands of chemical starting points for antimalarial lead identification” (Nature, 2010)
# Tested on: Plasmodium falciparum
# Test: GSK_TCMDC: Inhibition of Plasmodium falciparum 3D7 in whole erythrocytes, using parasite LDH activity as an index of growth.
# Type: functional, organism-based
# Details: Plasmodium falciparum, 3D7
row,Structure (SMILES),XC50 [nM]
1,CCC(C)NS(=O)(=O)c1ccc2nc(Nc3ccc(C)cc3)n([C@H](C)C(C)(C)C)c2c1 (stereo partly specified),391
2,COC(=O)c1ccc(CCC(C)NCC(O)c2cccc(Cl)c2)cc1 (stereo unspecified),670
3,O=C(/C=C/c1ccc(Cl)c(Cl)c1)NCCCCCN1CCC(CCNC(=O)/C=C/c2ccc(Cl)c(Cl)c2)CC1,561
4,O=C(COc1ccccc1)Nn1cnc2ccccc21,1050
5,CS(=O)(=O)CCNCc1cccc(-c2cc3nccc(Nc4ccc(Oc5ccccc5)cc4)c3cc2Cl)c1,625
6,CCc1nonc1NC(=O)c1oc2c(C)c(C)ccc2c1C,879
7,CCCNC(=O)c1ccnc(-c2ccc(CNC3Cc4ccccc4C3)cc2)c1,940
8,O=C(Cn1c(CCc2cccc(F)c2F)nc(=O)c2ccccc21)N(Cc1ccc(-c2ccc(C(F)(F)F)cc2)cc1)C1CCN(C2CCOCC2)CC1,745
9,Cc1nc2ccc3ccc(CNc4ccc5c(c4)CN([C@H](CCC(=O)O)C(=O)O)C5=O)cc3c2c(=O)[nH]1,860
10,CC1(C)N=C(N)N=C(NOCc2ccc(Cl)c(Cl)c2)N1,228
11,CCCc1cc(OC)c(CC2c3cc(O)c(Cl)cc3CCN2C)cc1OC (stereo unspecified),575
12,O=C1Nc2cccc3c2C1(CCCCN1CCC(c2c(-c4ccccc4)[nH]c4ccccc24)CC1)CCC3 (stereo unspecified),1200
13,Cc1ccc(-c2cc(C(=O)Nc3ccc(S(=O)(=O)N4CCCCC4C)cc3)n[nH]2)c(O)c1 (stereo unspecified),1080
14,O=C(c1cc2ccccc2o1)N1CCc2cc3nccc(N4CCN5CCC[C@H]5C4)c3cc21,812
15,O=C(Nc1ccc(NC2=NCCN2)cc1)Nc1ccc(NC2=NCCN2)cc1,845
16,CC1(C)CCCC(=Cc2ccc(Br)cc2)C1(O)Cn1ccnc1 (stereo unspecified),791
17,CCOc1cc2c(cc1OCC)C(c1cc(OC)c(O)cc1Cl)NCC2 (stereo unspecified),748
18,COc1cccc(CNC(=O)c2cccc(-c3ccc(CN4CCC(N5CCCC5)CC4)cc3)n2)c1,1790
19,CO/C(=C\C=C\c1cc2cc(Cl)c(Cl)cc2[nH]1)C(=O)NCCCNCCN(C)c1ccccc1,784
20,COc1cc2c(cc1OC)CN(CCc1ccc(NC(=O)c3cc4cc(OC(F)(F)F)ccc4[nH]3)cc1)CC2,535
21,COc1ccc2[nH]ccc(=NN=Cc3cccnc3)c2c1,501
22,COc1ccc(CCCON2C(=N)N=C(N)NC2(C)C)cc1,3.2
23,NCC1CCCN1Cc1ccc(-c2ccc(-c3nc4cc(F)ccc4[nH]3)cc2)cc1 (stereo unspecified),926
24,COc1ccc(CN2CCN(CCOC(c3ccc(F)cc3)c3ccc(F)cc3)CC2)c(O)c1,733

row,Structure (SMILES),XC50 [nM]
1,CC1CN(c2ccc(NC(=O)c3cccs3)cc2)CCN1Cc1cccc(F)c1 (stereo unspecified),492
2,CCN(CC)c1nc(N)c2c(N)nc3c(c2c1C#N)C(=O)CN3Cc1ccccc1,70.8
3,CCNc1cc(C(=O)N[C@@H](Cc2ccccc2)[C@H](O)CNCc2cc(OC)cc(OC)c2)cc(N2CCCS2(=O)=O)c1,43
4,N#CCCn1nc(-c2ccc(Cl)cc2)c2c(c1=O)CCCC2,892
5,Cn1cncc1C(=O)Nc1cccc(-c2ccc(-c3nc4cc(F)ccc4[nH]3)cc2)c1,735
6,CC(=O)Nc1ccc(C(=O)Nc2cccc(-c3ccc(-c4nc5cccc(C)c5[nH]4)cc3)c2)cn1,191
7,N#Cc1ccc2c(c1)CN(CCCCNC(=O)c1ccc(-c3ccccc3)cc1)CC2,894
8,O=C(Nc1ccc(-c2csc(-c3nc4ccccc4[nH]3)c2)cc1)Nc1ccsc1,552
9,CC1CN(Cc2ccc(-c3cccc(-c4nc5cc(F)ccc5[nH]4)c3)cc2)CC(C)O1 (stereo unspecified),917
10,CN(C)CCCOc1cccc(NC(=O)Nc2ccc(Cl)c(Cl)c2)c1,956
11,CN1CC[C@@H](Oc2cc(CNC(=O)c3ccc(-c4ccc(Cl)cc4)s3)ccc2C(F)(F)F)C1,1030
12,O=C(Nc1ccc(C(F)(F)F)cc1)c1cccc(S(=O)(=O)NCC2CCCN(CC3CCCCC3)C2)c1 (stereo unspecified),750
13,O=S(=O)(Nc1cccc(CCN2CCC(N3CCCCC3)CC2)c1)c1ccc(Oc2ccccc2)nc1,928
14,COc1ccc(-c2ccc(NC(=O)c3ccccc3)cc2)cc1CN1CCCN(C)CC1,905
15,O=C(Nc1ccc2c(c1)OCO2)c1cc(-c2cccnc2)nc2ccc(Cl)cc12,524
16,COc1ccc(C(=O)N2CCC3(CC2)C(=O)N(CC(=O)NCC2CCCCC2)CN3c2ccccc2)cc1,273
17,O=C(Nc1cccc(-c2nn3ccccc3c2-c2ccnc(Nc3cccc(F)c3)n2)c1)c1c(F)ccc(F)c1F,856
18,S=C(NCCCCCN1CCC(c2c[nH]c3ccccc23)CC1)Nc1cc(Cl)cc(Cl)c1,868
19,CS(=O)(=O)CCNc1cc(N2CCc3ncnc(Nc4ccc(OCc5cccc(F)c5)c(Cl)c4)c3C2)ncn1,873
20,CCCCn1c(=N)c(C(=O)NCc2cccnc2)cc2c(=O)n3cccc(C)c3nc21,745
21,Cc1ccc(S(C)(=O)=O)cc1/C=C/C(=O)O,868
22,Cc1ccc(O)cc1Nc1ccnc2cc(-c3csc(CN4CCN(C)CC4)n3)ccc12,597
23,O=C(Nc1ccc(Cl)c(Cl)c1)N1CCC(NCc2cccc([N+](=O)[O-])c2)CC1,763
24,COc1cccc2c(N/N=C/c3cccc([N+](=O)[O-])c3)ccnc12,748

row,Structure (SMILES),XC50 [nM]
1,CN(CCN)Cc1ccc(-c2ccc(-c3nc4cc(F)ccc4[nH]3)s2)cc1,1070
2,Nc1ncc(-c2ccc3[nH]ccc3c2)c2ccc(-c3ccncc3)cc12,542
3,O=C(/C=C/c1ccc(Cl)c(Cl)c1)NCCCCCN1CCC(NC(=O)Nc2cc(F)cc(F)c2)CC1,787
4,CCNc1cc(C(=O)N[C@@H](Cc2ccccc2)[C@H](O)CNC(C)(C)CCCC(C)C)cc(N2CCCCS2(=O)=O)c1,446
5,Nc1nc(N)c2c(ccc3nn(C4CCCC4)cc32)n1,286
6,Cc1nc(O)c2c(ccc3ccc(CN(C)c4ccc(C(=O)N[C@@H](CCC(=O)O)C(=O)O)cc4)cc32)n1,879
7,N=C(NCCc1ccc(Cl)c(Cl)c1)c1ccc2ccccc2c1,514
8,Cc1c(C)c2c(c(C)c1O)CC[C@](C)(C(=O)N1CCC(CN3CCC(c4c[nH]c5ccccc45)CC3)CC1)O2,718
9,Cc1cccc2nc(-c3cccc(-c4cccc(NC(=O)CNC(=O)c5ccc(O)cc5)c4)c3)[nH]c12,990
10,CCCCOc1ccccc1C(=O)NCc1csc(-c2ccccc2)n1,556
11,Cc1noc(C)c1-c1cccc(CNCc2cccc(-c3ccc(-c4nc5ccccc5[nH]4)cc3)c2)c1,228
12,O=c1c(NCCCN(Cc2ccc(F)cc2)c2ccccn2)c(NCc2ccncc2)c1=O,153
13,CS(=O)(=O)N1CC2(CCN(CCC(NC(=S)Nc3ccccc3)c3ccc(Cl)c(Cl)c3)CC2)c2ccccc21 (stereo unspecified),826
14,Cc1cc2c(NC(=O)NC3CCN(Cc4ccc(Cl)c(Cl)c4)CC3)cccc2cn1,681
15,COc1ccc2nccc(N3CCN(CCNCc4ccc5c(n4)NC(=O)CO5)CC3)c2n1,885
16,COc1cc2nc(Nc3ccc(N4CCOCC4)cc3)nc(N)c2cc1OC,871
17,Cn1ccnc1-c1nc2ccccn2c1NCC(=O)Nc1ccccc1N1CCCCC1,980
18,Cc1ccccc1N1CCN(c2ccc(C(=O)NC(C)C)cn2)CC1,901
19,C/C(=C\C(=O)NC1CC1)c1ccccc1OCc1ccccc1,504
20,CC(C)(C)c1ccc2oc(=O)n(C3CCN(C(=O)c4ccc([N+](=O)[O-])o4)CC3)c2c1,816
21,CN1CCN(CC(O)CNC(=O)Nc2ccc(Br)cc2)CC1 (stereo unspecified),149
22,COc1cc(Nc2nccc(N3CCC(NS(=O)(=O)c4ccc(NC(C)=O)cc4)CC3)n2)cc(OC)c1OC,965
23,C=Cc1sc(CNCCCNc2cc(=O)c3ccccc3[nH]2)c(C)c1Br,1050
24,O=C(c1cccs1)N(Cc1cccc(-c2ccc(CNC3CCCC3)cc2)c1)C1CCN(Cc2ccccc2)CC1,1130

row,Structure (SMILES),XC50 [nM]
1,COc1cc(NC(=O)/C=C/c2cc(F)cc(F)c2F)cc(OCCN2CCN(CCN3CCOCC3)CC2)c1,771
2,CCN(CC)CCN(Cc1ccc(-c2ccc(C(F)(F)F)cc2)cc1)C(=O)Cn1c(CCc2cc(F)c(F)cc2F)nc(=O)c2ccccc21,718
3,Oc1ccc(CCNc2nc(NCCCOc3cccc(-c4ccccc4)c3)nc(N3CCNCC3)n2)cc1,1130
4,Oc1ccc(Cl)cc1-c1cc(C(F)(F)F)nc(-c2ccccc2)n1,753
5,CN1CCC(c2csc3ccc(NC(=O)Nc4ccc(-c5ccncc5)c5ccccc45)cc23)CC1,1020
6,COc1ccc(NC(=O)/C=C/c2ccc(Oc3ccccc3Cl)c([N+](=O)[O-])c2)cc1OCCN(C(C)C)C(C)C,883
7,Cc1cc(NC(=O)c2cc(Br)ccc2Cl)n(-c2nc(C)c(C)c(=O)[nH]2)n1,1130
8,Nc1c2c(nc3ccc(NC(=O)Cc4ccccc4)cc13)CCCC2,755
9,CN1CCCN(c2ccnc3cc4c(cc23)N(C(=O)c2ccc(Cl)cc2)CC4)CC1,791
10,COc1cc2nc(SCCCC#N)n(C3CCCCCC3)c(=N)c2cc1OC,1140
11,O=C(NC(NC(=S)Nc1ccc([N+](=O)[O-])cc1)C(Cl)(Cl)Cl)c1cccc(Cl)c1 (stereo unspecified),731
12,CCCc1cc(Cc2cnc(N)nc2N)c2cccnc2c1OC,675
13,COc1ccc(CN2CCC(CNCCc3ccccc3Oc3ccccc3)CC2)cc1,1100
14,O=C(NCc1ccc(Cl)cc1)c1ccc(C(=O)NCC2CCCN2CC2CCCCC2)cc1 (stereo unspecified),854
15,CCCCC(N)COc1cccc2c(-c3ccncc3)c(-c3cccc(NC(=O)Nc4ccccc4)c3)nn12 (stereo unspecified),878
16,Cc1cc(C2CCN(CCCCNC(=O)c3ccc(-c4ccc(C(F)(F)F)cc4)cc3)CC2)c(C)cc1OCC#N,1010
17,Cc1ccc(NC(=O)c2ccc(NCCCN3CC(C)CC(C)C3)c([N+](=O)[O-])c2)cc1F (stereo unspecified),711
18,O=C(Nc1ccccc1Cc1ccccc1)c1ccccc1C(F)(F)F,782
19,Cc1cc2ccc(/C=C/C(=O)NC3CCC(CCN4CCc5ccc(C#N)cc5CC4)CC3)cc2[nH]1 (stereo unspecified),941
20,O=C(NCc1ccccc1)OC1CNCCC1c1ccc(C(O)Cc2ccccc2)cc1 (stereo unspecified),576
21,COc1cc(NC2CCCC(NCc3cn(S(=O)(=O)c4ccccc4)c4ccccc34)C2)nc2ccccc12 (stereo unspecified),248
22,C=CCc1cccc(CN2CCC(c3cc(O)nc(-c4ccccn4)n3)CC2)c1O,1100
23,CN(C)/C(=N/C(=N)Nc1ccc(Cl)cc1)NCCCCCCN/C(=N\C(=N)Nc1ccc(Cl)cc1)N(C)C,533
24,CN(C)CCCOc1c(C(C)(C)C)cc(-c2cc(C(C)(C)C)c(OCCCN(C)C)c(C(C)(C)C)c2)cc1C(C)(C)C,270
